Measurements from ChEMBL document CHEMBL1122120, “Brain levels and metabolism of the dopaminergic agonist 2-amino-6,7-dihydroxytetrahydronaphthalene after administration of various prodrugs” (J Med Chem, 1982).

Key:
[1] = Tested for the stability in water after 24h, activity expressed as percentage hydrolysis; format: physicochemical; conditions: read-out: Hydrolysis
[2] = Tested for the stability in water after 6h, activity expressed as percentage hydrolysis; format: physicochemical; conditions: read-out: Hydrolysis

Compound	degraded at 24 h [1] [%]	degraded at 6 h [2] [%]
CC(=O)Oc1cc2c(cc1OC(C)=O)CC(N)CC2 (stereo not drawn)	3.74	1.64
CC(C)(C)C(=O)Oc1cc2c(cc1OC(=O)C(C)(C)C)CC(N)CC2 (stereo not drawn)	0.02	0.01
NC1CCc2cc(OC(=O)c3ccccc3)c(OC(=O)c3ccccc3)cc2C1 (stereo not drawn)	0.06	0.03
CC(C)C(=O)Oc1cc2c(cc1OC(=O)C(C)C)CC(N)CC2 (stereo not drawn)	0.23	0.06
